# Reference: US11098038B2, “Imidazole-based anticancer agents and derivatives thereof, and methods of making and using same” (The University of Toledo, priority 2017, dated 2021)
# Key:
# SF-268 = assay: NCI 60 screen, SF-268; type: cell-based; conditions: Homo sapiens, CNS
# Procedure: (§1) The compounds synthesized were tested at the National Cancer Institute (NCI) for anti-proliferative activity in the 60 human tumor cell line assay.
# HS 578T = assay: NCI 60 screen, HS 578T; type: cell-based; conditions: Homo sapiens, Breast
# Procedure: as §1
# UACC-257 = assay: NCI 60 screen, UACC-257; type: cell-based; conditions: Homo sapiens, Melanoma
# Procedure: as §1
# MOLT-4 = assay: NCI 60 screen, MOLT-4; type: cell-based; conditions: Homo sapiens, Leukemia
# Procedure: as §1
# SK-MEL-5 = assay: NCI 60 screen, SK-MEL-5; type: cell-based; conditions: Homo sapiens, Melanoma
# Procedure: as §1
# UACC-62 = assay: NCI 60 screen, UACC-62; type: cell-based; conditions: Homo sapiens, Melanoma
# Procedure: as §1
# HOP-62 = assay: NCI 60 screen, HOP-62; type: cell-based; conditions: Homo sapiens, Non-Small Cell Lung
# Procedure: as §1
# COLO 205 = assay: NCI 60 screen, COLO 205; type: cell-based; conditions: Homo sapiens, Colon
# Procedure: as §1
# TK-10 = assay: NCI 60 screen, TK-10; type: cell-based; conditions: Homo sapiens, Renal
# Procedure: as §1
# 786-0 = assay: NCI 60 screen, 786-0; type: cell-based; conditions: Homo sapiens, Renal
# Procedure: as §1
# OVCAR-8 = assay: NCI 60 screen, OVCAR-8; type: cell-based; conditions: Homo sapiens, Ovarian
# Procedure: as §1
# HCT-116 = assay: NCI 60 screen, HCT-116; type: cell-based; conditions: Homo sapiens, Colon
# Procedure: as §1
# M14 = assay: NCI 60 screen, M14; type: cell-based; conditions: Homo sapiens, Melanoma
# Procedure: as §1
# MDA-MB-435 = assay: NCI 60 screen, MDA-MB-435; type: cell-based; conditions: Homo sapiens, Melanoma
# Procedure: as §1
# IGROV1 = assay: NCI 60 screen, IGROV1; type: cell-based; conditions: Homo sapiens, IGROV-1, Ovarian
# Procedure: as §1
# PC-3 = assay: NCI 60 screen, PC-3; type: cell-based; conditions: Homo sapiens, Prostatic
# Procedure: as §1
# SK-MEL-2 [1] = assay: NCI 60 screen, SK-MEL-2 (first line); type: cell-based; conditions: Homo sapiens; Melanoma, SK-MEL-2 (first of two lines so named, r37)
# Procedure: as §1
# SR = assay: NCI 60 screen, SR; type: cell-based; conditions: Homo sapiens, Leukemia
# Procedure: as §1
# SK-OV-3 = assay: NCI 60 screen, SK-OV-3; type: cell-based; conditions: Homo sapiens, Ovarian
# Procedure: as §1
# RXF393 = assay: NCI 60 screen, RXF393; type: cell-based; conditions: Homo sapiens, RXF 393, Renal
# Procedure: as §1
# SW-620 = assay: NCI 60 screen, SW-620; type: cell-based; conditions: Homo sapiens, Colon
# Procedure: as §1
# OVCAR-3 = assay: NCI 60 screen, OVCAR-3; type: cell-based; conditions: Homo sapiens, Ovarian
# Procedure: as §1
# SF-539 = assay: NCI 60 screen, SF-539; type: cell-based; conditions: Homo sapiens, CNS
# Procedure: as §1
# HCC-2998 = assay: NCI 60 screen, HCC-2998; type: cell-based; conditions: Homo sapiens, Colon
# Procedure: as §1
# HOP-92 = assay: NCI 60 screen, HOP-92; type: cell-based; conditions: Homo sapiens, Non-Small Cell Lung
# Procedure: as §1
# SF-295 = assay: NCI 60 screen, SF-295; type: cell-based; conditions: Homo sapiens, CNS
# Procedure: as §1
# U251 = assay: NCI 60 screen, U251; type: cell-based; conditions: Homo sapiens, U-251, CNS
# Procedure: as §1
# OVCAR-4 = assay: NCI 60 screen, OVCAR-4; type: cell-based; conditions: Homo sapiens, Ovarian
# Procedure: as §1
# UO-31 = assay: NCI 60 screen, UO-31; type: cell-based; conditions: Homo sapiens, Renal
# Procedure: as §1
# LOX IMVI = assay: NCI 60 screen, LOX IMVI; type: cell-based; conditions: Homo sapiens, Melanoma
# Procedure: as §1
# NCI-460 = assay: NCI 60 screen, NCI-460; type: cell-based; conditions: Homo sapiens, Non-Small Cell Lung
# Procedure: as §1
# CCRF-CEM = assay: NCI 60 screen, CCRF-CEM; type: cell-based; conditions: Homo sapiens, Leukemia
# Procedure: as §1
# K-562 = assay: NCI 60 screen, K-562; type: cell-based; conditions: Homo sapiens, K562, Leukemia
# Procedure: as §1
# BT-549 = assay: NCI 60 screen, BT-549; type: cell-based; conditions: Homo sapiens, Breast
# Procedure: as §1
# NCI/ADR-RES = assay: NCI 60 screen, NCI/ADR-RES; type: cell-based; conditions: Homo sapiens, Ovarian
# Procedure: as §1
# RPMI-8226 = assay: NCI 60 screen, RPMI-8226; type: cell-based; conditions: Homo sapiens, Leukemia
# Procedure: as §1
# NCI-H522 = assay: NCI 60 screen, NCI-H522; type: cell-based; conditions: Homo sapiens, Non-Small Cell Lung
# Procedure: as §1
# NCI-H23 = assay: NCI 60 screen, NCI-H23; type: cell-based; conditions: Homo sapiens, Non-Small Cell Lung
# Procedure: as §1
# A549/ATCC = assay: NCI 60 screen, A549/ATCC; type: cell-based; conditions: Homo sapiens, Non-Small Cell Lung
# Procedure: as §1
# SN12C = assay: NCI 60 screen, SN12C; type: cell-based; conditions: Homo sapiens, Renal
# Procedure: as §1
# KM12 = assay: NCI 60 screen, KM12; type: cell-based; conditions: Homo sapiens, Colon
# Procedure: as §1
# MALME-3M = assay: NCI 60 screen, MALME-3M; type: cell-based; conditions: Homo sapiens, Melanoma
# Procedure: as §1
# MDA-MB-231/ATCC = assay: NCI 60 screen, MDA-MB-231/ATCC; type: cell-based; conditions: Homo sapiens, Breast
# Procedure: as §1
# SNB-75 = assay: NCI 60 screen, SNB-75; type: cell-based; conditions: Homo sapiens, CNS
# Procedure: as §1
# NCI-H226 = assay: NCI 60 screen, NCI-H226; type: cell-based; conditions: Homo sapiens, Non-Small Cell Lung
# Procedure: as §1
# HL-60(TB) = assay: NCI 60 screen, HL-60(TB); type: cell-based; conditions: Homo sapiens, Leukemia
# Procedure: as §1
# OVCAR-5 = assay: NCI 60 screen, OVCAR-5; type: cell-based; conditions: Homo sapiens, Ovarian
# Procedure: as §1
# HCT15 = assay: NCI 60 screen, HCT15; type: cell-based; conditions: Homo sapiens, HCT-15, Colon
# Procedure: as §1
# SNB-19 = assay: NCI 60 screen, SNB-19; type: cell-based; conditions: Homo sapiens, CNS
# Procedure: as §1
# EKVX = assay: NCI 60 screen, EKVX; type: cell-based; conditions: Homo sapiens, Non-Small Cell Lung
# Procedure: as §1
# T-47D = assay: NCI 60 screen, T-47D; type: cell-based; conditions: Homo sapiens, T47D, Breast
# Procedure: as §1
# DU-145 = assay: NCI 60 screen, DU-145; type: cell-based; conditions: Homo sapiens, Prostatic
# Procedure: as §1
# CAKI-1 = assay: NCI 60 screen, CAKI-1; type: cell-based; conditions: Homo sapiens, Renal
# Procedure: as §1
# HT29 = assay: NCI 60 screen, HT29; type: cell-based; conditions: Homo sapiens, HT-29, Colon
# Procedure: as §1
# ACHN = assay: NCI 60 screen, ACHN; type: cell-based; conditions: Homo sapiens, Renal
# Procedure: as §1
# A498 = assay: NCI 60 screen, A498; type: cell-based; conditions: Homo sapiens, Renal
# Procedure: as §1
# NCI-322M = assay: NCI 60 screen, NCI-322M; type: cell-based; conditions: Homo sapiens, Non-Small Cell Lung
# Procedure: as §1
# SK-MEL-2 [2] = assay: NCI 60 screen, SK-MEL-2 (second line); type: cell-based; conditions: Homo sapiens; Melanoma, SK-MEL-2 (second of two lines so named, r38)
# Procedure: as §1
# MDA-MB-468 = assay: NCI 60 screen, MDA-MB-468; type: cell-based; conditions: Homo sapiens, Breast
# Procedure: as §1
# MCF7 = assay: NCI 60 screen, MCF7; type: cell-based; conditions: Homo sapiens, Breast
# Procedure: as §1
smiles,measurement,setting,value
"Cn1ccnc1C(=O)/C=C/c1ccc(CC(=O)Nc2ccc(F)cc2)cc1 [Compound 28, (E)-N-(4-fluorophenyl)-2-(4-(3-(1-methyl-1H-imidazol-2-yl)-3-oxoprop-1-en-1-yl)phenyl)acetamide]",GI50,SF-268,2.89 µM
same,GI50,HS 578T,1.5 µM
same,GI50,UACC-257,6.99 µM
same,GI50,MOLT-4,2.32 µM
same,GI50,SK-MEL-5,4.45 µM
same,GI50,UACC-62,3.51 µM
same,GI50,HOP-62,4.68 µM
same,GI50,COLO 205,4.39 µM
same,GI50,TK-10,10.5 µM
same,GI50,786-0,1.37 µM
same,GI50,OVCAR-8,5.71 µM
same,GI50,HCT-116,0.99 µM
same,GI50,M14,3.23 µM
same,GI50,MDA-MB-435,4.25 µM
same,GI50,IGROV1,2.93 µM
same,GI50,PC-3,1.99 µM
same,GI50,SK-MEL-2 [1],7.01 µM
same,GI50,SR,0.51 µM
same,GI50,SK-OV-3,9.81 µM
same,GI50,RXF393,3.89 µM
same,GI50,SW-620,1.97 µM
same,GI50,OVCAR-3,0.96 µM
same,GI50,SF-539,3.59 µM
same,GI50,HCC-2998,3.78 µM
same,GI50,HOP-92,4.51 µM
same,GI50,SF-295,4.55 µM
same,GI50,U251,1.4 µM
same,GI50,OVCAR-4,5.68 µM
same,GI50,UO-31,1.72 µM
same,GI50,LOX IMVI,0.71 µM
same,melting point,,213 °C
same,GI50,NCI-460,1.8 µM
same,GI50,CCRF-CEM,2 µM
same,GI50,K-562,0.82 µM
same,GI50,BT-549,1.32 µM
same,GI50,NCI/ADR-RES,4.24 µM
same,GI50,RPMI-8226,1.02 µM
same,GI50,NCI-H522,3.34 µM
same,GI50,NCI-H23,3.04 µM
same,GI50,A549/ATCC,6.43 µM
same,GI50,SN12C,1.62 µM
same,GI50,KM12,1.62 µM
same,GI50,MALME-3M,5.28 µM
same,GI50,MDA-MB-231/ATCC,2.96 µM
same,GI50,SNB-75,3.74 µM
same,GI50,NCI-H226,8.57 µM
same,GI50,HL-60(TB),1.6 µM
same,GI50,OVCAR-5,4.36 µM
same,GI50,HCT15,1.29 µM
same,GI50,SNB-19,2.74 µM
same,GI50,EKVX,5.5 µM
same,GI50,T-47D,8.34 µM
same,GI50,DU-145,1.24 µM
same,GI50,CAKI-1,3.14 µM
same,GI50,HT29,2.27 µM
same,GI50,ACHN,5.74 µM
same,GI50,A498,5.56 µM
same,GI50,NCI-322M,2.07 µM
same,GI50,SK-MEL-2 [2],4.47 µM
same,GI50,MDA-MB-468,1.72 µM
same,GI50,MCF7,1.04 µM
